Test results reported in US20190269705A1, “METHODS AND MATERIALS FOR TREATING GRAFT VERSUS HOST DISEASE” (Regents of the University of Minnesota, priority 2017, published 2019).
“Also recorded” adds a separate entry of the source.

Tests used:
[1] = test system: Th17 cells; assay: RNA-Seq and gene set enrichment analysis, Th17; type: cell-based, mouse
Method: ATAC-Seq: Crude nuclei pellets were isolated as described elsewhere (see, e.g., Buenrostro et al., 2013 Nat Meth. 10(12):1213-1218) with modifications. Briefly, naïve CD4 T cells were skewed to Th1 and Th17 subsets in vitro with vehicle or in the presence of 500 nM CB839. At Day 5, T cells were re-isolated for CD4+ cells using Miltenyi CD4+ negative selection kit (Cat #: 130-104-454). 1×10^5 cells were removed for nuclei extraction in ATAC-Seq lysing buffer. Cells were exposed to Tn5+ adaptor proteins from Nextera DNA for 30 min at 37° C. and immediately placed on ice. Transposed eluate was amplified via PCR using Nextera DNA preparation kit (Illumina, Cat #: FC-121-1030), NEBNext High-fidelity 2× PCR mix (New England Labs, Cat #: M0541), and multiplexed (Illumina, Cat #: FC-121-1011). Samples were purified using Zymo DNA cleanup kit (Cat #: D4011). QC of samples was run on bioanalyzer before being sent for sequencing. RNA-Seq: Th1 and Th17 cells skewed with or without CB839 were isolated as previously described and total RNA extracted (Qiagen RNEasy Mini kit, Cat #: 74104). RNA was sent to VANTAGE core at Vanderbilt University and sequenced on HiSeq 2500. n=3 for each sample was analyzed. Samples were analyzed using the R program DESeq2. GSEA was performed using MSigDB.
Th1 and Th17 cells were skewed with or without CB839 over 5 days and total RNA extracted for RNAseq (Cat #: 74104). RNA was sent to VANderbilt Technologies for Advanced GEnomics (VANTAGE) core at Vanderbilt University. Libraries were prepared using 50 ng of total RNA using the NEBNext Ultra RNA Library Kit for Illumina (Cat #E7530) and sequenced on HiSeq3000 at 75 bp paired-end. Each sample was analyzed in triplicate. Sequencing reads were aligned against the Mouse GENCODE genome, Version M14 (Jan. 2017 freeze, GRCm38, Ensembl 89) using the Spliced Transcripts Alignment to a Reference (STAR) software (ref: 26187010 and 23104886). Reads were preprocessed and index using SAMtools (ref: 19505943). Mapped reads were assigned to gene features and quantified using featureCounts (ref: 24227677). Normalization and differential expression was performed using DESeq2 (Love et al., 2014). Skewed lymphocytes with and without CB839 were compared in both Th1 and Th17 groups. […] The top 200 most differentially expressed genes were used for unsupervised hierarchical cluster analysis and visualized using heatmap representations.

[2] = test system: CD19+ B cells; assay: In vivo CAR T cells treated ex vivo; set-up: species or system mouse; details: CAR-T cells treated with CB839 during in vitro transduction
Description: CAR T cells were produced as described elsewhere (see, e.g., Li et al., “Gammaretroviral Production and T Cell Transduction to Genetically Retarget Primary T Cells Against Cancer.” In: Lugli E, ed. T-Cell Differentiation: Methods and Protocols. New York, N.Y.: Springer New York; 2017:111-118). Briefly, spleen T cells were isolated from Thy1.1 B6 mice at day 0. Cells were then activated with mouse CD3/CD28 Dynabeads and 30 IU/ml recombinant human IL2. At day 1 and 2, cells were spin transduced twice with retrovirus carrying CARs. At day 3, cells were fed with fresh medium. At day 4, transduced T cells were harvested, beads removed, evaluated for viability, transduction efficiency, immune phenotype and ready for use. For CB839 treated CAR T cells, CB839 were added to the culture at day 1, 2 and 3 at 1 μM. For in vivo study, C57B6 mice (n=25) were i.p. injected with cyclophosphamide (CTX) at 300 mg/kg. Mice were i.v. injected with 3×10^5 CAR T cells one day after CTX injection. Peripheral blood (PB) samples were collected 1, 2, 4 and 6 weeks after CAR T injection, stained with B cell and T cell antibodies and subjected to flow cytometry. […]
CAR T cells were produced as previously described (Li et al., 2017). […] At day 4, transduced T cells were harvested, beads removed, evaluated for viability, transduction efficiency, immune phenotype and ready for use. […]

[3] = Th17 Cells: Decreased Pathways, HALLMARK_CHOLESTEROL_HOMEOSTASIS
[4] = Th17 Cells: Decreased Pathways, HALLMARK_E2F_TARGETS
[5] = Th17 Cells: Decreased Pathways, HALLMARK_G2M_CHECKPOINT
[6] = Th17 Cells: Decreased Pathways, HALLMARK_GLYCOLYSIS
[7] = Th17 Cells: Decreased Pathways, HALLMARK_IL2_STAT5_SIGNALING
[8] = Th17 Cells: Decreased Pathways, HALLMARK_MTORC1_SIGNALING
[9] = Th17 Cells: Decreased Pathways, HALLMARK_MYC_TARGETS_V1
[10] = Th17 Cells: Decreased Pathways, HALLMARK_MYC_TARGETS_V2
[11] = Th17 Cells: Decreased Pathways, HALLMARK_TNFA_SIGNALING_VIA_NFKB
[12] = Th17 Cells: Decreased Pathways, HALLMARK_UNFOLDED_PROTEIN_RESPONSE
[13] = Th17 Cells: Increased Pathways, HALLMARK_APICAL_JUNCTION
[14] = Th17 Cells: Increased Pathways, HALLMARK_COMPLEMENT
[15] = Th17 Cells: Increased Pathways, HALLMARK_EPITHELIAL_MESENCHYMAL_TRANSITION
[16] = Th17 Cells: Increased Pathways, HALLMARK_HYPOXIA
[17] = Th17 Cells: Increased Pathways, HALLMARK_INFLAMMATORY_RESPONSE
[18] = Th17 Cells: Increased Pathways, HALLMARK_INTERFERON_GAMMA_RESPONSE
[19] = Th17 Cells: Increased Pathways, HALLMARK_MYOGENESIS
[20] = Th17 Cells: Increased Pathways, HALLMARK_P53_PATHWAY
[21] = Th17 Cells: Increased Pathways, HALLMARK_TNFA_SIGNALING_VIA_NFKB
[22] = Th17 Cells: Increased Pathways, HALLMARK_XENOBIOTIC_METABOLISM

Compound: O=C(Cc1cccc(OC(F)(F)F)c1)Nc1ccc(CCCCc2nnc(NC(=O)Cc3ccccn3)s2)nn1 [CB839]
- compensation by GLS2 at the RNA level ([1]; Th17, CB839-treated): No compensation by GLS2 at the RNA level
- direction of the 200 genes with the most altered expression ([1]; Th17, CB839 vs vehicle): more of the most changed genes were downregulated; also recorded: more of these genes were downregulated
- gene set enrichment: cell cycle, mTORC1, Myc, IL2 signaling pathways ([1]; Th17, CB839 vs vehicle): downregulated
- # Genes in Overlap (k) [1, 3]: 25
- k/K [1, 3]: 0.3378
- # Genes in Overlap (k) [1, 4]: 107
- k/K [1, 4]: 0.535
- # Genes in Overlap (k) [1, 5]: 94
- k/K [1, 5]: 0.47
- # Genes in Overlap (k) [1, 6]: 31
- k/K [1, 6]: 0.155
- # Genes in Overlap (k) [1, 7]: 39
- k/K [1, 7]: 0.195
- # Genes in Overlap (k) [1, 8]: 70
- k/K [1, 8]: 0.35
- # Genes in Overlap (k) [1, 9]: 75
- k/K [1, 9]: 0.375
- # Genes in Overlap (k) [1, 10]: 31
- k/K [1, 10]: 0.5345
- # Genes in Overlap (k) [1, 11]: 34
- k/K [1, 11]: 0.17
- # Genes in Overlap (k) [1, 12]: 29
- k/K [1, 12]: 0.2566
- # Genes in Overlap (k) [1, 13]: 19
- k/K [1, 13]: 0.095
- # Genes in Overlap (k) [1, 14]: 17
- k/K [1, 14]: 0.085
- # Genes in Overlap (k) [1, 15]: 16
- k/K [1, 15]: 0.08
- # Genes in Overlap (k) [1, 16]: 15
- k/K [1, 16]: 0.075
- # Genes in Overlap (k) [1, 17]: 16
- k/K [1, 17]: 0.08
- # Genes in Overlap (k) [1, 18]: 25
- k/K [1, 18]: 0.125
- # Genes in Overlap (k) [1, 19]: 18
- k/K [1, 19]: 0.09
- # Genes in Overlap (k) [1, 20]: 19
- k/K [1, 20]: 0.095
- # Genes in Overlap (k) [1, 21]: 17
- k/K [1, 21]: 0.085
- # Genes in Overlap (k) [1, 22]: 17
- k/K [1, 22]: 0.085
- CAR-T cell accumulation / persistence in vivo [2]: accumulated in vivo to a greater extent; also recorded: enhances T cell persistence
- elimination of CD19+ targets in vivo [2]: equivalently capable; also recorded: equally capable of eliminating CD19+ targets in vivo
